In ChEMBL document CHEMBL1157400, “Cytotoxic staurosporines from the marine ascidian Cystodytes solitus” (2008):

Legend:
Assay type in all cases: functional
MDA-MB-231 = assay: Cytotoxicity against human MDA-MB-231 cells after 72 hrs by sulforhodamine B method; details: MDA-MB-231, 72 h
HT-29 = assay: Cytotoxicity against human HT29 cells after 72 hrs by sulforhodamine B method; details: HT-29, 72 h
A549 = assay: Cytotoxicity against human A549 cells after 72 hrs by sulforhodamine B method; details: A549, 72 h

With `CN[C@@H]1C[C@H]2O[C@@](C)([C@@H]1OC)n1c3ccccc3c3c4c(c5c6ccccc6n2c5c31)C(=O)NC4` [STAUROSPORINE] the GI50 (MDA-MB-231) was 7.1 nM, the GI50 (HT-29) was 10.9 nM and the GI50 (A549) was 2.4 nM.
With `CN[C@@H]1C[C@H]2O[C@@](C)([C@@H]1OC)n1c3ccc(O)c(O)c3c3c4c(c5c6cc(O)ccc6n2c5c31)C(=O)NC4=O` the GI50 (MDA-MB-231) was 28.4 nM, the GI50 (HT-29) was 68.1 nM and the GI50 (A549) was 26.6 nM.
For `CO[C@@H]1[C@H](N)C[C@H]2O[C@]1(C)n1c3ccc(O)c(O)c3c3c4c(c5c6ccccc6n2c5c31)C(=O)NC4=O`, the GI50 (MDA-MB-231) was 32.1 nM, the GI50 (HT-29) was 90.3 nM and the GI50 (A549) was 17.5 nM.
